Assays:
BRM = target: T1, BRM (Homo sapiens, UniProt P51531); assay: ATPase catalytic activity assay (ADP-Glo), BRM; format: biochemical; conditions: Table 10; for Ratio (BRG1 IC50 (μM) divided by BRM IC50 (μM)): ATPase assay, selectivity BRG1/BRM; for IC50: ATPase catalytic activity assay (ADP-Glo)
T1 construct: made in house; host or cells: High Five insect cells
In short: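 ADP-Glo luminescence measures ADP produced by BRM ATPase (30 nM) during 1 h at room temperature. ATP is 400 μM, with 20 nM salmon sperm DNA as cofactor. Buffer: 20 mM Tris pH 8, 20 mM MgCl2, 50 mM NaCl, 0.1% Tween-20, 1 mM DTT.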

BRG-1 = target: T2, BRG-1 (Homo sapiens, UniProt P51532); assay: ATPase catalytic activity assay (ADP-Glo), BRG-1; format: biochemical; conditions: Table 10, read-out: BRG1 IC50
T2 construct: made in house; host or cells: High Five insect cells
In short: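 In this in vitro format, BRG-1 hydrolysis product ADP is detected via a two-step ADP-Glo workup (ATP removal, then ADP-to-ATP conversion with luciferase detection) followed by a luminescence read.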

T1 sequence (P51531 whole entry): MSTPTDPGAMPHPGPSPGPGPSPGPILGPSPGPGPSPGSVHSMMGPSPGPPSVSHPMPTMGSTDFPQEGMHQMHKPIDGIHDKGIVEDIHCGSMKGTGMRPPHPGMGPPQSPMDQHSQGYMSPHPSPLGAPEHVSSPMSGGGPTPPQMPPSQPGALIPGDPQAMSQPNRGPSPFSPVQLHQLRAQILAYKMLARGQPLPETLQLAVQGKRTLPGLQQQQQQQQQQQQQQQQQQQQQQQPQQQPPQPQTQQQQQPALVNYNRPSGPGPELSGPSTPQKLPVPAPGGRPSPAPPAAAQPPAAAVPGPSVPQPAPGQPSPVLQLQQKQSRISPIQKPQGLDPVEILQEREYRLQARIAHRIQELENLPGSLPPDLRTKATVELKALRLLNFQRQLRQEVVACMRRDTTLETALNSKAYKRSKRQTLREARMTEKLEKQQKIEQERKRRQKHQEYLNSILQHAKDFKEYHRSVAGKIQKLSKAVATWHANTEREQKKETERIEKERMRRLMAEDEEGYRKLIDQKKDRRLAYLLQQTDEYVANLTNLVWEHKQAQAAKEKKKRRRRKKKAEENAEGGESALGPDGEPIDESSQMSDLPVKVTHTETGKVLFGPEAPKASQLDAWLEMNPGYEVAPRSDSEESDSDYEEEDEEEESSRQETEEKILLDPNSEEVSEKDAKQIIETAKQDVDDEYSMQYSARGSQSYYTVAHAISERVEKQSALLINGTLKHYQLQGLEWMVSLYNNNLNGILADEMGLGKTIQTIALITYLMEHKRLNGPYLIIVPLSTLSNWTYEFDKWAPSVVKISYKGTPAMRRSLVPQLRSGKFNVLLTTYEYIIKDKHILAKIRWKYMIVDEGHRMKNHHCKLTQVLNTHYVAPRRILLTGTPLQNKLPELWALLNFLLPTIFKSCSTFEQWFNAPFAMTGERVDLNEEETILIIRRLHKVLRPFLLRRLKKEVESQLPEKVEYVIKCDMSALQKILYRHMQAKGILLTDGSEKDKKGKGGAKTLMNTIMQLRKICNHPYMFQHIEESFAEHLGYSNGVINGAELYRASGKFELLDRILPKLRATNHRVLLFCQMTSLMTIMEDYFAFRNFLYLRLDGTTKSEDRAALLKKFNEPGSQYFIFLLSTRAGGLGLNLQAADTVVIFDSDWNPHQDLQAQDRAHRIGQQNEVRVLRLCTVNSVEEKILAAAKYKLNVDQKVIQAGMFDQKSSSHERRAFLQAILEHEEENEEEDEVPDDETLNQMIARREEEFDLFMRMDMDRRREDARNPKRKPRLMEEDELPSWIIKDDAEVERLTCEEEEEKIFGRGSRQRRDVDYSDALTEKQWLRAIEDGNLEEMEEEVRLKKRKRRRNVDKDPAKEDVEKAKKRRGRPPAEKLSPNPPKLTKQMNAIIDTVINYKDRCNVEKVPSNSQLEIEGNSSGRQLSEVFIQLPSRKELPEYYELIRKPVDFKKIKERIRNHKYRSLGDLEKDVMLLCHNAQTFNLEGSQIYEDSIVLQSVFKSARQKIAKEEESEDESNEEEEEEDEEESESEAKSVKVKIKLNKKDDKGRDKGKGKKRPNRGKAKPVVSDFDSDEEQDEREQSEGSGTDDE
T2 sequence (P51532 whole entry): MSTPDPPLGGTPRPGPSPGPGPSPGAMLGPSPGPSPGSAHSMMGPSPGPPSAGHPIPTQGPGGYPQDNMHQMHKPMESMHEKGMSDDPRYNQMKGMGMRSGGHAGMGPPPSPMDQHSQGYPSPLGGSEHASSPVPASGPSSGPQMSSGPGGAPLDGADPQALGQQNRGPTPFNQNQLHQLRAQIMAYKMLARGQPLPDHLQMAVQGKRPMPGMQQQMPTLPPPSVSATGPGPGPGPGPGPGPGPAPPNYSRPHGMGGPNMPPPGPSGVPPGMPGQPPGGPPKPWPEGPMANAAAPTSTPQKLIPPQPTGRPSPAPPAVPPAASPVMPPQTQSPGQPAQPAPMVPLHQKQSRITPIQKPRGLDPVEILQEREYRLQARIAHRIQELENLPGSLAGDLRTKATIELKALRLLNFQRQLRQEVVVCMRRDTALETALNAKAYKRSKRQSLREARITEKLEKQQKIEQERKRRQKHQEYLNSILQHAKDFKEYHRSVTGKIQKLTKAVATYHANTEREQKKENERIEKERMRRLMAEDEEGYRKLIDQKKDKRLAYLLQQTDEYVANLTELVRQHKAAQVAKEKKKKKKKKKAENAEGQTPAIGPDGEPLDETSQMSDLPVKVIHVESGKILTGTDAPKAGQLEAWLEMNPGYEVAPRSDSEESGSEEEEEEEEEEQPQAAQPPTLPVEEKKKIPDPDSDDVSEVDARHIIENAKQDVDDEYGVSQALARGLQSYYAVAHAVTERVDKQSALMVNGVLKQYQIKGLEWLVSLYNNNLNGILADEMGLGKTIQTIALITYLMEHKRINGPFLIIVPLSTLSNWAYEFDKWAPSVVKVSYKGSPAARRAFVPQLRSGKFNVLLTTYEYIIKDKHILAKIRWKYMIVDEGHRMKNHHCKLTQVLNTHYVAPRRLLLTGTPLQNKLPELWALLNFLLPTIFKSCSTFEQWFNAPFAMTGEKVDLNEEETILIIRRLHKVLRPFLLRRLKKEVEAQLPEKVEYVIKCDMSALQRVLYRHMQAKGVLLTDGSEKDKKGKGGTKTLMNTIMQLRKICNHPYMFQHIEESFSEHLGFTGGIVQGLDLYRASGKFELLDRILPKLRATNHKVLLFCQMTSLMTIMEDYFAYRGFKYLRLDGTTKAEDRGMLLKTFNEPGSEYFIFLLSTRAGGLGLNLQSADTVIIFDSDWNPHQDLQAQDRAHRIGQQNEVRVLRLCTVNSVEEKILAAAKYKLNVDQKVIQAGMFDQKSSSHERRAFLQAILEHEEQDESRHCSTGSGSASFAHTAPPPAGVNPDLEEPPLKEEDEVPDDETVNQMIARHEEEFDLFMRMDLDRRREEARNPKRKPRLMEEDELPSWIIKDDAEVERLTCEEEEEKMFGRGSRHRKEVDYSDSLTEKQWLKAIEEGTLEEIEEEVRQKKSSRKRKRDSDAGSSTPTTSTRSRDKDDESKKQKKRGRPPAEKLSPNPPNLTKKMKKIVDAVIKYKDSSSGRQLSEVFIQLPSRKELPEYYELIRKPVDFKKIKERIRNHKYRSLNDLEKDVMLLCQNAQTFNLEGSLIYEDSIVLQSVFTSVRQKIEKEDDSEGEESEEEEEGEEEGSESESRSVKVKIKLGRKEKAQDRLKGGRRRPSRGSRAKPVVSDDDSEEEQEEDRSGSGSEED

| Structure (SMILES) | Ratio (BRG1 IC50 (μM) divided by BRM IC50 (μM)) (BRM) | IC50 (BRM) [nM] | IC50 (BRG-1) [nM] |
| --- | --- | --- | --- |
| C[C@@H]1CN(c2cccc(-c3ccc4cnc(CNC(=O)c5cc(C(F)F)c6c(c5)S(=O)(=O)[C@@H](F)CCO6)cc4n3)n2)C[C@H](C)O1 [Compound 64] | 11.59 | 2.6 | 29.8 |
| O=C(NCc1cc2nc(N3CCOc4c(N5CCC5)ccnc43)ccc2cn1)c1cc(F)c2c(c1)S(=O)(=O)[C@@H](F)CCO2 [Compound 65] | 21.94 | 2.6 | 46.2 |
| O=C(NCc1cc2nc(N3CCOc4cc(N5C[C@@H](F)[C@H](F)C5)cnc43)ccc2cn1)c1cc(F)c2c(c1)S(=O)(=O)[C@@H](F)CCO2 [Compound 66] | 24.64 | 2.6 | 78.5 |
| CO[C@H]1CN(c2cccc(-c3ccc4cnc(CNC(=O)c5cc(F)c6c(c5)S(=O)(=O)[C@@H](F)CCO6)cc4n3)n2)C[C@@H]1C [Compound 67] | 17.37 | 2.7 | 46.2 |
| Cc1cc2c(-c3ccc4cnc(CNC(=O)c5cc(F)c6c(c5)S(=O)(=O)[C@@H](F)CCO6)cc4n3)ccc(F)c2n1C [Compound 68] | 13.58 | 2.7 | 36.2 |
| C[C@H]1[C@@H](F)CN1c1cnc2c(c1)OCCN2c1ccc2cnc(CNC(=O)c3cc(F)c4c(c3)S(=O)(=O)[C@@H](F)CCO4)cc2n1 [Compound 69] | 13.99 | 2.7 | 37.5 |
| O=C(NCc1cc2nc(N3CCOc4cc(C5(C(F)F)CC5)cnc43)ccc2cn1)c1cc(F)c2c(c1)S(=O)(=O)[C@@H](F)CCO2 [Compound 70] | 12.79 | 2.7 | 39.6 |
| COc1cnc2c(c1)OCCN2c1ccc2cnc(CNC(=O)c3cc(F)c4c(c3)S(=O)(=O)[C@@H](F)CCO4)cc2n1 [Compound 71] | 17.64 | 2.7 | 48.3 |
| O=C(NCc1cc2nc(N3CCOc4ccc(C5CC5)nc43)ccc2cn1)c1cc(F)c2c(c1)S(=O)(=O)[C@@H](F)COC2 [Compound 72] | 21.76 | 2.8 | 66.6 |
| Cc1ccc(-c2ccc3cnc(CNC(=O)c4cc(F)c5c(c4)S(=O)(=O)[C@@H](F)COC5)cc3n2)c(OC(F)F)n1 [Compound 73] | 20.62 | 2.8 | 57.1 |
| O=C(NCc1cc2nc(N3CCOc4cc([C@@H]5CC5(F)F)cnc43)ccc2cn1)c1cc(F)c2c(c1)S(=O)(=O)[C@@H](F)COC2 [Compound 74] | 9.59 | 2.8 | 26.7 |
| COc1nc(C(C)(F)F)ccc1-c1ccc2cnc(CNC(=O)c3cc(F)c4c(c3)S(=O)(=O)[C@@H](F)COC4)cc2n1 [Compound 75] | 26.00 | 2.8 | 80.1 |
| O=C(NCc1cc2nc(N3CCCc4c3ccnc4OC3CC3)ccc2cn1)c1cc(F)c2c(c1)S(=O)(=O)[C@@H](F)CCO2 [Compound 76] | 16.02 | 2.8 | 45.1 |
| O=C(NCc1cc2cc(-c3cncc(C4CC4)n3)ccc2cn1)c1cc(F)c2c(c1)S(=O)(=O)[C@@H](F)COC2 [Compound 77] | 23.82 | 2.8 | 67 |
| C[C@@H]1CN(c2cccc(-c3ccc4cnc(CNC(=O)c5cc(Cl)c6c(c5)S(=O)(=O)[C@@H](F)COC6)cc4n3)n2)C[C@H](C)O1 [Compound 79] | 12.12 | 3 | 34.4 |
| C[C@@H]1[C@@H](F)CN1c1cnc2c(c1)OCCN2c1ccc2cnc(CNC(=O)c3cc(F)c4c(c3)S(=O)(=O)[C@@H](F)CCO4)cc2n1 [Compound 80] | 16.24 | 3 | 48.4 |
| COc1cc2c(nc1C(F)F)N(c1ccc3cnc(CNC(=O)c4cc(F)c5c(c4)S(=O)(=O)[C@@H](F)CCO5)cc3n1)CCO2 [Compound 81] | 14.31 | 3 | 46.7 |
| CCc1cnc2c(c1)OCCN2c1ccc2cnc(CNC(=O)c3cc(F)c4c(c3)S(=O)(=O)[C@@H](F)CCO4)cc2n1 [Compound 82] | 22.96 | 3.1 | 68 |
| Cc1cnc2c(c1)OCCN2c1ccc2cnc(CNC(=O)c3ccc4c(c3)S(=O)(=O)[C@@H](F)CCO4)cc2n1 [Compound 83] | 19.36 | 3.1 | 49.6 |
| [2H]C1([2H])Oc2c(F)cc(C(=O)NCc3cc4nc(-c5ccc(C(F)F)nc5OC)ccc4cn3)cc2S(=O)(=O)[C@@]([2H])(F)C1([2H])[2H] [Compound 84] | 25.97 | 3.1 | 95.7 |
| O=C(NCc1cc2nc(-c3ccc(OC(F)F)c(C4CC4)n3)ccc2cn1)c1cc(F)c2c(c1)S(=O)(=O)[C@@H](F)COC2 [Compound 85] | 20.37 | 3.1 | 69.9 |

Further lines, results first:

| Ratio (BRG1 IC50 (μM) divided by BRM IC50 (μM)) (BRM) | IC50 (BRM) [nM] | IC50 (BRG-1) [nM] | Structure (SMILES) |
| --- | --- | --- | --- |
| 20.83 | 2.3 | 47.7 | COc1nc([C@@H](F)CF)ccc1-c1ccc2cnc(CNC(=O)c3cc(F)c4c(c3)S(=O)(=O)[C@@H](F)COC4)cc2n1 [Compound 46] |
| 16.31 | 2.3 | 54.3 | C[C@@H]1CCN1c1cnc2c(c1)OCCN2c1ccc2cnc(CNC(=O)c3cc(F)c4c(c3)S(=O)(=O)[C@@H](F)CCO4)cc2n1 [Compound 47] |
| 13.42 | 2.3 | 34.1 | O=C(NCc1cc2nc(N3CCOc4cc(N5CCC5)cnc43)ccc2cn1)c1cc(F)c2c(c1)S(=O)(=O)[C@@H](F)COC2 [Compound 48] |
| 15.78 | 2.5 | 38.7 | O=C(NCc1cc2nc(N3CCOc4cc(N5C[C@@H](F)[C@H](F)C5)cnc43)ccc2cn1)c1cc(F)c2c(c1)S(=O)(=O)[C@@H](F)COC2 [Compound 50] |
| 18.72 | 2.5 | 42.1 | Cc1cnc2c(c1)OCCN2c1ccc2cnc(CNC(=O)c3cc(F)c4c(c3)S(=O)(=O)[C@@H](F)CCO4)cc2n1 [Compound 51] |
| 22.78 | 2.5 | 56 | C[C@@H]1CN(c2cccc(/C=C/c3ccnc(CNC(=O)c4cc(F)c5c(c4)S(=O)(=O)[C@@H](F)CCO5)c3)n2)C[C@H](C)O1 [Compound 52, (R)—N-((4-((E)-2-(6-((2S,6R)-2,6-dimethylmorpholino)pyridin-2-yl)vinyl)pyridin-2-yl)methyl)-4,9-difluoro-3,4-dihydro-2H-benzo[b][1,4]oxathiepine-7-carboxamide 5,5-dioxide] |
| 19.48 | 2.5 | 54.3 | COc1nc(C(F)F)ccc1-c1ccc2cnc(CNC(=O)c3cc(F)c4c(c3)S(=O)(=O)[C@@H](F)COC4)cc2n1 [Compound 53] |
| 9.72 | 2.5 | 27.9 | CO[C@H]1CN(c2cccc(-c3ccc4cnc(CNC(=O)c5cc(F)c6c(c5)S(=O)(=O)[C@@H](F)COC6)cc4n3)n2)C[C@@H]1F [Compound 54] |
| 35.69 | 2.5 | 124 | O=C(NCc1cc2nc(N3CCOc4ccc(C5CC5)nc43)ccc2cn1)c1cc(F)c2c(c1)S(=O)(=O)[C@@H](F)CCO2 [Compound 55] |
| – | 2.5 | 58.2 | [2H]C1([2H])OC([2H])([2H])[C@H](F)S(=O)(=O)c2cc(C(=O)NCc3cc4nc(N5CCOc6cc(N7CC(F)C7)cnc65)ccc4cn3)cc(F)c21 [Compound 56] |
| 17.61 | 2.5 | 36.8 | O=C(NCc1cc2nc(N3CCOc4ccc(N5CC[C@H](F)C5)nc43)ccc2cn1)c1cc(F)c2c(c1)S(=O)(=O)[C@@H](F)CCO2 [Compound 57] |
| 23.60 | 2.5 | 64.4 | O=C(NCc1cc2nc(N3CCOc4ccc(C(F)F)nc43)ccc2cn1)c1cc(F)c2c(c1)S(=O)(=O)[C@@H](F)COC2 [Compound 58] |
| – | 2.5 | 72.5 | [2H]C1([2H])OC([2H])([2H])[C@H](F)S(=O)(=O)c2cc(C(=O)NCc3cc4nc(N5CCOc6ccc(C7CC7)nc65)ccc4cn3)cc(F)c21 [Compound 59] |
| 18.66 | 2.6 | 53.1 | O=C(NCc1cc2nc(-c3ccc(C(F)F)c(C4CC4)n3)ccc2cn1)c1cc(F)c2c(c1)S(=O)(=O)[C@@H](F)CCO2 [Compound 60] |
| 21.08 | 2.6 | 48.5 | O=C(NCc1cc2nc(N3CCOc4cc(C5CC5)cnc43)ccc2cn1)c1cc(Cl)c2c(c1)S(=O)(=O)[C@@H](F)COC2 [Compound 61] |
| 28.84 | 2.6 | 79.7 | O=C(NCc1cc2nc(N3CCOc4ccc([C@H](F)CF)nc43)ccc2cn1)c1cc(F)c2c(c1)S(=O)(=O)[C@@H](F)COC2 [Compound 62] |
| 23.13 | 2.6 | 58.7 | O=C(NCc1cc2nc(N3CCOc4ccc(N5CC(F)C5)nc43)ccc2cn1)c1cc(F)c2c(c1)S(=O)(=O)[C@@H](F)COC2 [Compound 63] |

Source: patent US12139487B2, “Compounds and uses thereof” (Foghorn Therapeutics Inc., priority 2022, dated 2024)
